Active and inactive are the calls of the source. The rule behind the calls is not given here.

Data set [1] deals with A549. The data set is described as follows: Antiproliferative activity against human A549 cells assessed as inhibition of cell growth. In kind it is functional, cell-based.
Data set [2] relates to HeLa. The data set is described as follows: Antiproliferative activity against human HeLa cells assessed as inhibition of cell growth. In kind it is functional, cell-based.
For data set [3], the system named is HCT-116. The data set is described as follows: Antiproliferative activity against human HCT-116 cells assessed as inhibition of cell growth. In kind it is functional, cell-based.
A short description of data set [4]: Chemical stability of compound in phosphate buffer at pH 7.4 for 37 degC assessed as drug degradation measured after 20 mins in presence of beta-glucuronidase by HPLC method relative to control. The data set is classed as physicochemical. Particulars: phosphate buffer with beta-glucuronidase, read-out: Drug degradation.
The nature of data set [5]: Chemical stability of compound in phosphate buffer at pH 7.4 for 37 degC assessed as drug degradation measured after 2 hrs in presence of beta-glucuronidase by HPLC method. Particulars: pH 7.4, 2 h. The data set is classed as physicochemical.
Data set [6] deals with HCT-116. As to the kind of experiment: Antitumor activity against human HCT-116 cells xenografted in BALB/C mouse assessed as tumor growth inhibition at 0.5 mg/kg, iv administered every 5 days. In kind it is functional, organism-based. Particulars: time 5.0 day. A general note: A xenograft is tissue or cells of one species grown in another, often human tumour cells in immunodeficient mice.

Data set [7] can be described thus: Toxicity in BALB/c mouse assessed as side effect at 2 to 4 mg/kg, iv administered every 3 days. The data set is classed as organism-based. The note with it: in vivo, 72 h, dose 2-4 mg/kg, time 3 day.
Data set [8] in a line: Chemical stability of compound in phosphate buffer at pH 7.4 for 37 degC assessed as degradation measured after 48 hrs by HPLC method. In kind it is physicochemical. Particulars: pH 7.4, 48 h.
For data set [9], the system named is HeLa. As to the kind of experiment: Antiproliferative activity against human HeLa cells assessed as inhibition of cell growth in presence of beta-glucuronidase. In kind it is functional, cell-based.
Data set [10] deals with HCT-116. The data set is described as follows: Antiproliferative activity against human HCT-116 cells assessed as inhibition of cell growth in presence of beta-glucuronidase. The data set is classed as functional, cell-based.
The subject of data set [11] is A549. As to the kind of experiment: Antiproliferative activity against human A549 cells assessed as inhibition of cell growth in presence of beta-glucuronidase. The data set is classed as functional, cell-based.
A short description of data set [12]: Stability of compound in bovine serum solution for 37 degC assessed as degradation measured after 48 hrs by HPLC method. In kind it is ADME, cell-free, Bos taurus. The note with it: cattle.
A short description of data set [13]: Toxicity in BALB/c mouse assessed as body weight loss at 2 to 4 mg/kg, iv administered every 3 days. In kind it is organism-based. Particulars: in vivo, 72 h, dose 2-4 mg/kg, time 3 day.
The subject of data set [14] is HCT-116. As to the kind of experiment: Antitumor activity against human HCT-116 cells xenografted in iv dosed BALB/C mouse assessed as tumor growth inhibition administered every 5 days. In kind it is functional, organism-based. Particulars: dose 2-4 mg/kg, time 5.0 day.

In general, IC50 refers to the concentration needed to halve the response being measured. On to `CC[C@H](C)[C@@H]([C@@H](CC(=O)N1CCC[C@H]1[C@H](OC)[C@@H](C)C(=O)N[C@H](C)[C@@H](O)c1ccc(F)cc1)OC)N(C)C(=O)[C@@H](NC(=O)[C@H](C(C)C)N(C)C)C(C)C`, for which the IC50 in the data set with A549 [1] stood at 5.52 nM; in the data set on HeLa [2] it was 4.87 nM; with HCT-116 [3] it was 6.13 nM.
For the compound `CC[C@H](C)[C@@H]([C@@H](CC(=O)N1CCC[C@H]1[C@H](OC)[C@@H](C)C(=O)N[C@H](C)[C@@H](O)c1ccccc1)OC)N(C)C(=O)[C@@H](NC(=O)[C@H](C(C)C)N(C)C)C(C)C`, the metabolised at 20 min in data set [4] is 37%. For the same compound, the figures for the IC50 in the data set on A549 [1], in the data set on HeLa [2] and in the data set with HCT-116 [3] were 5.03 nM, 4.89 nM and 4.96 nM, respectively. In addition, in data set [5], the Stability result is “Unstable”. The outcome in the data set with HCT-116 [6] was Active. In addition, in [7], the Activity result was “Non-Toxic”.
As to `CC[C@H](C)[C@@H]([C@@H](CC(=O)N1CCC[C@H]1[C@H](OC)[C@@H](C)C(=O)N[C@H](C)[C@@H](OC(=O)N(C)CCN(C)C(=O)OCc1ccc(O[C@@H]2O[C@H](C(=O)O)[C@@H](O)[C@H](O)[C@H]2O)c([N+](=O)[O-])c1)c1ccccc1)OC)N(C)C(=O)[C@@H](NC(=O)[C@H](C(C)C)N(C)C)C(C)C`, the Stability result in data set [8] is listed as “Stable”; in data set [5] it was “Unstable”; in data set [12], “Stable”. In addition, the metabolised at 20 min in data set [4] stood at 48%. Besides, the IC50 in the data set with HeLa [9] was 5.73 nM; in the data set with HCT-116 [10] it was 6.61 nM; with A549 [1], 1520 nM; with A549 [11] it was 6.38 nM; in the data set on HeLa [2] it was 1650 nM; in the data set on HCT-116 [3] it was 1490 nM. The Activity result was “Non-Toxic” in data set [13] and “Dose-Dependent Effect” with HCT-116 [14].
In the case of `CC[C@H](C)[C@@H]([C@@H](CC(=O)N1CCC[C@H]1[C@H](OC)[C@@H](C)C(=O)N[C@H](C)[C@@H](OC(=O)N(C)CCN(C)C(=O)OCc1ccc(O[C@@H]2O[C@H](C(=O)O)[C@@H](O)[C@H](O)[C@H]2O)c([N+](=O)[O-])c1)c1ccc(F)cc1)OC)N(C)C(=O)[C@@H](NC(=O)[C@H](C(C)C)N(C)C)C(C)C`, the Stability entry in [8] and in data set [12] was “Stable” throughout. In addition, the IC50 is 8.3 nM in the data set on HeLa [9]; 9.11 nM in the data set on HCT-116 [10]; 1020 nM in the data set with A549 [1]; 9.68 nM with A549 [11]; 990 nM with HeLa [2]; 1110 nM in the data set on HCT-116 [3].

The values are drawn from ChEMBL document CHEMBL5365544, “Design, synthesis of auristatins-glucuronide conjugates targeting the β-glucuronidase in tumor microenvironment” (Bioorg Med Chem Lett, 2023).
